From PMC9668969 (Nature Communications, 2022)
Several values for one entry are separate records, joined by “and”; a condition that tells them apart may be missing. Equal values may be shown once.

Legend:
ELIC T259A = target: T1, ELIC T259A (Dickeya chrysanthemi, UniProt P0C7B7, T258A/T259A); assay type: biochemical, Erwinia chrysanthemi; conditions: 25 mol% outer leaflet POPG, 10 mM propylamine
T1 construct: host or cells: OverExpress C43 (DE3) E. coli
Protocol: (§1) The mutations were tested as for WT by examining the effect of 25 mol% outer leaflet POPG in paired (no exchange versus exchange) samples (Supplementary Fig. 15).
(§2) The fluorescence sequential-mixing stopped-flow liposomal flux measurements were carried using an SX20 stopped-flow spectrofluorometer (Applied Photophysics) and Pro-Data SX software[13],[30]. 7.5 mg of the respective lipid mixture (POPC, 1:1 POPC: POPE, 1:1 POPC:POPG, 3:1 POPC:POPE, 3:1 POPC:POPG, 2:1:1 POPC:POPE:POPG) was dried in a glass vial to a thin film under a constant stream of N2. The lipids were then further dried under vacuum in a desiccator overnight. The following day the lipids were hydrated in 500 µl of reconstitution buffer (100 mM NaNO3, 10 mM HEPES, pH 7) (Buffer R), 250 µl of 75 mM 8-Aminonaphthalene-1,3,6-Trisulfonic Acid (ANTS, ThermoFisher Scientific) in buffer R, and doped with ~18 mg of CHAPS (Anatrace). The mixture was vortexed and then sonicated with heat until completely solubilized. Following the sonication, the solution was brought to RT then 3.5 µl of 6.7 mg/ml ELIC in Buffer A with 0.02% DDM was added (3 µg per mg of lipid). This combined solution was incubated at RT for 30 min, followed by the addition of 1 ml of 1:1 v/v SM-2 BioBeads in Buffer R and an additional 250 µl of 75 mM ANTS in Buffer R. This mixture was incubated at RT for 2.5 hr with gentle mixing. The liposome suspension was then extruded with an Avanti mini-extruder and 0.1 µm membrane (30×). The extruded liposomes were stored at 13 °C overnight with gentle rotation. The next day, the liposomes were diluted to 2.5 mL using assay buffer (140 mM NaNO3, 10 mM HEPES, pH 7) (Stopped-flow Buffer A), loaded into a PD-10 desalting column (Cytiva), eluted with 3 mL of Stopped-flow Buffer A and subsequently diluted 5-fold with Stopped-flow Buffer A.
(§3) Using propylamine as the agonist, the assay and analysis was carried out as previously described[13],[30].

ELIC S202A = target: T2, ELIC S202A (Dickeya chrysanthemi, UniProt P0C7B7, S201A); assay type: biochemical, Erwinia chrysanthemi; conditions: 25 mol% outer leaflet POPG, 10 mM propylamine
T2 construct: host or cells: OverExpress C43 (DE3) E. coli
Protocol: as §1, §2, §3

ELIC R318A = target: T3, ELIC R318A (Dickeya chrysanthemi, UniProt P0C7B7, R317A); assay type: biochemical, Erwinia chrysanthemi; conditions: 25 mol% outer leaflet POPG, 10 mM propylamine
T3 construct: host or cells: OverExpress C43 (DE3) E. coli
Protocol: as §1, §2, §3

ELIC Q264L = target: T4, ELIC Q264L (Dickeya chrysanthemi, UniProt P0C7B7, Q263L); assay type: biochemical, Erwinia chrysanthemi; conditions: 25 mol% outer leaflet POPG, 10 mM propylamine
T4 construct: host or cells: OverExpress C43 (DE3) E. coli
Protocol: as §1, §2, §3

ELIC W206F = target: T5, ELIC W206F (Dickeya chrysanthemi, UniProt P0C7B7, W205F); assay type: biochemical, Erwinia chrysanthemi; conditions: 25 mol% outer leaflet POPG, 10 mM propylamine
T5 construct: host or cells: OverExpress C43 (DE3) E. coli
Protocol: as §1, §2, §3

WT ELIC [1] = assay: Asymmetric liposome stopped-flow Tl+ flux assay (no exchange vs exchange, 25 mol% outer leaflet POPG); assay type: biochemical, Erwinia chrysanthemi; set-up: key to Tl+ flux quenching rate, Avg. / Tl+ flux quenching rate: Tl+ influx rate kt at 2 ms from stretched-exponential fit (Eq. 2b); conditions: for Tl+ flux quenching rate, Avg. / Tl+ flux quenching rate: Exchange: WT in 3:1 PC:PE, 25% POPG in outer leaflet by beta-CD; for Tl+ flux quenching rate: single experiments
Protocol: as §2
Using propylamine as the agonist, the assay and analysis was carried out as previously described[13],[30]. ELIC-containing liposomes were first mixed 1:1 with Buffer A containing 2× the concentration of propylamine. After a variable delay of 10 ms to 25 s, the sample was then mixed 1:1 with a quenching buffer (90 mM NaNO3, 50 mM TlNO3, 10 mM HEPES, pH 7), and ANTS fluorescence (ex. 360 nm, fluorescence above 420 nm) was recorded for 1 s. For each delay time, 5 repeat measurements were obtained. The data were collected using Applied Photophysics Pro-Data SX software. The fluorescence quenching traces were fit to a stretched exponential (Eq. 2a) and the rate of Tl^+ influx was determined at 2 ms (Eq. 2b).2a Ft=F∞+F0−F∞⋅e^−t/τ^β 2b kt=β/τ⋅2ms/τ^(β−1) where Ft, F∞, F0 are the fluorescence at time t, final fluorescence and initial fluorescence. τ is the time constant, β the stretched exponential factor, and kt the calculated rate of Tl^+ influx at 2 ms. The time course of desensitization was also fit to a double exponential and a weighted time constant was calculated as was done for the patch-clamp data using Origin 2019b. All replicates were taken from independent samples.
Acceptor liposomes were prepared as described in the Stopped-flow fluorescence recordings section until completion of the extrusion step. The preparation was scaled up 2x to produce samples for the no-exchange and exchange conditions. After extrusion and storage of the liposomes overnight at 13 °C, the double liposome preparation was split into two equal volume aliquots of ~1.5 ml. Using the excel spreadsheet provided by Markones et al.[44], donor POPG and methyl-β-cyclodextrin (MβCD, Sigma) concentrations and volumes were calculated to produce an outer leaflet POPG content of 25 mol% in the liposomes. The calculations assumed a ~6.66 mM lipid concentration and 1.5 mL volume of the acceptor liposome solution[44]. A MβCD-POPG (50% saturation of MβCD by POPG) solution was formed by combining 224 µL 7.5 mM POPG in Stopped-flow Buffer A, 650 µl 300 mM MβCD in Stopped-flow Buffer A, and 126 µL Stopped-flow Buffer A, which was then mixed at 50 °C and 1000 RPM for 20 min using an Eppendorf thermomixer. […]

WT ELIC [2] = conditions: without BaCl2; cited from earlier work
[3] = 25 mol% in outer leaflet, 10 mM propylamine
[4] = 10 mM propylamine, delay 0.01 s
[5] = 10 mM propylamine, delay 0.05 s
[6] = 10 mM propylamine, delay 0.25 s

T4 sequence (P0C7B7 whole entry Q263L): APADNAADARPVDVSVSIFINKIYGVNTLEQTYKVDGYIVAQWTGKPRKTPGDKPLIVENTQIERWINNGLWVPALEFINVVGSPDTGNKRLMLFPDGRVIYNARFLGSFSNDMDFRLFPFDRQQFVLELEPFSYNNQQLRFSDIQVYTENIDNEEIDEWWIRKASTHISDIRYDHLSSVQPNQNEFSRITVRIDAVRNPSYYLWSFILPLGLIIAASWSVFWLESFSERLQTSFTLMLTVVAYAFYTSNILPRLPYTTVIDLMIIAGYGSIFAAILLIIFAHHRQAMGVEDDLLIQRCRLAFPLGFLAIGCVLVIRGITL
T5 sequence (P0C7B7 whole entry W205F): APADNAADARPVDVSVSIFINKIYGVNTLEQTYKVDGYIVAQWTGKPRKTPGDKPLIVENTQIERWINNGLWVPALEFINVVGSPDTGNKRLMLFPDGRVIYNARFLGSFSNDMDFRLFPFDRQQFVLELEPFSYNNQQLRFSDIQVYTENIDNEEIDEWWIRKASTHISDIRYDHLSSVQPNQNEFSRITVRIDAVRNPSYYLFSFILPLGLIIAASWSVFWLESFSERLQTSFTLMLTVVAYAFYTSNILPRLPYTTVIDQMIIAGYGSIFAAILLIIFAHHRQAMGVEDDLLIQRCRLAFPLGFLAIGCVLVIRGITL
T1 sequence (P0C7B7 whole entry T258A/T259A): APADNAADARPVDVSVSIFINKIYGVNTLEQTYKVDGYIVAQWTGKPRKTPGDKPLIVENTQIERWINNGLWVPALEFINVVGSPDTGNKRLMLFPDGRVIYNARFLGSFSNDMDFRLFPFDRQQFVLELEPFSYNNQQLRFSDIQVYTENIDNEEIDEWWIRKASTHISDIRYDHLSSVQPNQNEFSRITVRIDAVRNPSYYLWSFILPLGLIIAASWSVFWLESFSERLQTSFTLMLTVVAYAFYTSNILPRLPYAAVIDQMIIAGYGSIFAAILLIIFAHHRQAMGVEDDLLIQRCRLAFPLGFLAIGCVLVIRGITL
T2 sequence (P0C7B7 whole entry S201A): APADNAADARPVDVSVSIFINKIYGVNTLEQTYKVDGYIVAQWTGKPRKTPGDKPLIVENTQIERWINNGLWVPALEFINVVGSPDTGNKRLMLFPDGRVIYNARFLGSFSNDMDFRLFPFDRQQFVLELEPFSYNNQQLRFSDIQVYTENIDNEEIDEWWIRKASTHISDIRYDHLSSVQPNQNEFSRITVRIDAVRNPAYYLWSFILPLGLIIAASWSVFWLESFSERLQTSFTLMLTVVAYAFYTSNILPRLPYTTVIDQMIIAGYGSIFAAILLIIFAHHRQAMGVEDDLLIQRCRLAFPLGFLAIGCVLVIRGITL
T3 sequence (P0C7B7 whole entry R317A): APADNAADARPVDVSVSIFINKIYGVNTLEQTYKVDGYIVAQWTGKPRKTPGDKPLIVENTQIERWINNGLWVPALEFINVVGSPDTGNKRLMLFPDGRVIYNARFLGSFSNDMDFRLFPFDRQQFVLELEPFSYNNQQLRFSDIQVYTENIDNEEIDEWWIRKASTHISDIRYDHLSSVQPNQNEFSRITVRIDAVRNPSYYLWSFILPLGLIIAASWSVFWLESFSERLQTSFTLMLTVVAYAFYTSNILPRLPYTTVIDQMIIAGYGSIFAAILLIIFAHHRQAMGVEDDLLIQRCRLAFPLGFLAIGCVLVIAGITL

In the case of `CCCCCCCC/C=C\CCCCCCCC(=O)OC(COC(=O)CCCCCCCCCCCCCCC)COP(=O)(O)OCC(O)CO` (stereo not shown) [POPG, 1-palmitoyl-2-oleoyl-phosphatidylglycerol], the “POPG modulation (peak response and desensitization)” value (“POPG modulation” below) (ELIC T259A) is reported as “POPG only decreases desensitization”, the “POPG modulation” value (ELIC S202A) is reported as “both effects of POPG (increased peak response and decreased desensitization) are abolished” and the “POPG modulation” value (ELIC R318A) is reported as “POPG only decreases desensitization”. For the same molecule, the “POPG modulation” value (ELIC Q264L) was “POPG modulation is preserved”, the “increase in the measurable peak response” value (ELIC Q264L) was 2 × and the “POPG modulation” value (ELIC W206F) was “POPG only decreases desensitization”. The “time constant of desensitization” value (WT ELIC [1]; 25% POPG introduced to the outer leaflet) was ~ 6 s, the “effect on peak agonist response” value (WT ELIC [1]; [3]) was “increased the peak agonist response approximately two-fold” and the “effect on rate of desensitization” value (WT ELIC [1]; [3]) was “reduced the rate of desensitization”. The “Tl+ flux quenching rate, Avg.” value (WT ELIC [1]; [4]) was 18.3739, the “Tl+ flux quenching rate, Avg.” value (WT ELIC [1]; 10 mM propylamine, delay 0.025 s) was 13.1397 and the “Tl+ flux quenching rate, Avg.” value (WT ELIC [1]; [5]) was 28.9905. The “Tl+ flux quenching rate, Avg.” value (WT ELIC [1]; 10 mM propylamine, delay 0.1 s) was 40.2879, the “Tl+ flux quenching rate, Avg.” value (WT ELIC [1]; [6]) was 49.694 and the “Tl+ flux quenching rate, Avg.” value (WT ELIC [1]; 10 mM propylamine, delay 0.5 s) was 74.7874. The “Tl+ flux quenching rate, Avg.” value (WT ELIC [1]; 10 mM propylamine, delay 1 s) was 70.2446, the “Tl+ flux quenching rate, Avg.” value (WT ELIC [1]; 10 mM propylamine, delay 2.5 s) was 59.7249 and the “Tl+ flux quenching rate, Avg.” value (WT ELIC [1]; 10 mM propylamine, delay 5 s) was 40.3668. The “Tl+ flux quenching rate, Avg.” value (WT ELIC [1]; 10 mM propylamine, delay 10 s) was 38.6421, the “Tl+ flux quenching rate, Avg.” value (WT ELIC [1]; 10 mM propylamine, delay 25 s) was 9.131 and the “Tl+ flux quenching rate” value (WT ELIC [1]; [4]) was 25.3857 and 14.5673 and 13.3121 and 20.2302. For the same molecule, the “Tl+ flux quenching rate” value (WT ELIC [1]; [5]) was 31.4624 and 22.583 and 30.1073 and 31.8092, the “Tl+ flux quenching rate” value (WT ELIC [1]; [6]) was 55.8845 and 34.2232 and 67.362 and 41.3064 and the “Tl+ flux quenching rate” value (WT ELIC [1]; 10 mM propylamine, delay 0.5 s) was 114.141 and 61.2513 and 65.8238 and 57.9331.
For `NCCS` [cysteamine], the EC50 (WT ELIC [2]) is given as 1000 to 2000 µM.
